Laboratory results as given in patent US20250034216A1, “STEREOSELECTIVE COVALENT LIGANDS FOR ONCOGENIC AND IMMUNOLOGICAL PROTEINS” (The Scripps Research Institute, priority 2021, published 2025).

How the values were obtained:
NT5DC2_C504 = target: T1, NT5DC2_C504 (Homo sapiens, UniProt Q9H857); test: IA-DTB cysteine engagement; format: binding; settings: 22Rv1 cells, 20 μM probe, 1 h, relative to DMSO
T1 construct: endogenous in cells; host or cells: 22Rv1
T1 sequence (Q9H857 1-520): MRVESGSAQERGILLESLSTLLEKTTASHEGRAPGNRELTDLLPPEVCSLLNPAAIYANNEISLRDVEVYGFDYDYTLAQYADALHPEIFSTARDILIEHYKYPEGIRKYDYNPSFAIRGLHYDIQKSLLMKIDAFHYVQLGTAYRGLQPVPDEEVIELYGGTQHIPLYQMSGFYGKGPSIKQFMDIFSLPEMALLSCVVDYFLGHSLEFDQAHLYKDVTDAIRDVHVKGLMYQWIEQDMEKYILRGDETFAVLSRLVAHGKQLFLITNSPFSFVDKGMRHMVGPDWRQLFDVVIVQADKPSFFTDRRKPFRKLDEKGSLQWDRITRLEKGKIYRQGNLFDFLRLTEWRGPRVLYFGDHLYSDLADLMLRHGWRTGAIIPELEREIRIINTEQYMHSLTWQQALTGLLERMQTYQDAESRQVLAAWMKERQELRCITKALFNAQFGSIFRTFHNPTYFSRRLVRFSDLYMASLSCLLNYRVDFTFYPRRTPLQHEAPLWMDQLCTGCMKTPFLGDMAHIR
Outline: (§1)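 Read-out is TMT-based cysteine engagement, expressed as each reporter ion intensity divided by the average of the DMSO channels. Before that, probe-treated cell lysates were capped with IA-DTB, digested, enriched on streptavidin and TMT-tagged. PSMs with DMSO summed intensity <10,000 or DMSO CV >0.5 were excluded.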

HMOX2_C265 = target: T2, HMOX2_C265 (Homo sapiens, UniProt P30519); test: IA-DTB cysteine engagement; format: binding; settings: 22Rv1 cells, 20 μM probe, 1 h, relative to DMSO
T2 construct: endogenous in cells; host or cells: 22Rv1
T2 sequence (P30519 1-316): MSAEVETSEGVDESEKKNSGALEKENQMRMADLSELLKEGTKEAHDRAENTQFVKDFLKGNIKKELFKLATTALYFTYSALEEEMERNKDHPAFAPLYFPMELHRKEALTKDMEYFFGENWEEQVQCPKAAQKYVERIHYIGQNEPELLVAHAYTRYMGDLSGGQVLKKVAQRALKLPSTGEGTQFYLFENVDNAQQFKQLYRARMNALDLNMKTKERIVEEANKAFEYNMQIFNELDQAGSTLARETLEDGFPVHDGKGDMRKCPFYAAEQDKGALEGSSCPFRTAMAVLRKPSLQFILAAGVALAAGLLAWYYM
Outline: as §1

Row | % engagement NT5DC2_C504 (NT5DC2_C504) | % engagement HMOX2_C265 (HMOX2_C265) | Compound
1 | 85.5% | 72.5% | C=CC(=O)N1C[C@@H](c2ccc(Br)cc2)[C@H]1C(=O)Nc1cccc2cccnc12 [MY-1A, (2S,3R)-1-acryloyl-3-(4-bromophenyl)-N-(quinolin-8-yl)azetidine-2-carboxamide]
2 | 75% | 73.5% | C=CC(=O)N1C[C@H](c2ccc(Br)cc2)[C@@H]1C(=O)Nc1cccc2cccnc12 [MY-1B, (2R,3S)-1-acryloyl-3-(4-bromophenyl)-N-(quinolin-8-yl)azetidine-2-carboxamide]
3 | 59% | 79.5% | C=CC(=O)N1C[C@H](c2ccc(Br)cc2)[C@H]1C(=O)Nc1cccc2cccnc12 [MY-3B, (2S,3S)-1-acryloyl-3-(4-bromophenyl)-N-(quinolin-8-yl)azetidine-2-carboxamide]
4 | 54.5% | 71.75% | C=CC(=O)N1C[C@H](c2ccc(Br)cc2)[C@H]1C(=O)Nc1cccc2cccnc12 [MY-3A, (2S,3S)-1-acryloyl-3-(4-bromophenyl)-N-(quinolin-8-yl)azetidine-2-carboxamide]
